Experimental data reported in patent publication US20220106564A1, “COMPOSITION AND KIT FOR DIFFERENTIATION OF STEM CELLS INTO NEURAL CREST STEM CELLS, INCLUDING INHIBITOR OF TGF-BETA I RECEPTOR AND BMP INHIBITOR, AND METHOD USING SAME” (CHA UNIVERSITY INDUSTRY-ACADEMIC COOPERATION FOUNDATION, priority 2019, published 2022).

Columns and labels:
[1] = tested on: H9 human embryonic stem cells (hESCs); assay: Flow cytometry for P75 (neural crest stem cell marker) in cultured cells; type: cell-based; conditions: suspension about 3 days + adherent about 4 days (FIG. 3E)
Experimental: The obtained colonies were finely chopped and suspension-cultured under conditions of 37° C. and 5% CO2 in an EB medium containing 10 μM of SB431542 (GlaxoSmithKline: GSK) as a TGF-β I receptor inhibitor and 0.5 μM to 1 μM of dorsomorphin homolog 1 (DMH1) (Tocris Bioscience, USA) or dorsomorphin (Tocris Bioscience, […]). EB medium contained DMEM/F12 (Life Technologies), 20%(v/v) Knockout serum replacement (KSR, Invitrogen), lx non-essential amino acids (Invitrogen), 0.1 mM 13-mercaptoethanol (Invitrogen), and lx penicillin/streptomycin (Invitrogen). As a negative control, dimethyl sulfoxide (DMSO) (Sigma-Aldrich) was used instead of the drug. […] To analyze a proportion of cells expressing P75 protein which is a neural crest stem cell (NCSC) marker, or SOX1 which is a neural progenitor cell (NPC) marker, immunostaining was performed using phycoerythrin (PE)-labeled anti-P75 monoclonal antibody (1:50 dilution) (Miltenyi Biotec), and phycoerythrin (PE)-labeled anti-Sox1 monoclonal antibody (1:100 dilution) (BD Biosciences). The immunostained cells were subjected to flow cytometry using a BD FACSCalibur flow cytometer (BD Biosciences, Sparks, Md., USA). The results of flow cytometry are shown in FIGS. 2A and 2B (FIG. 2A: a graph of P75 flow cytometry, FIG. 2B: a graph of SOX1 flow cytometry). Cells suspension-cultured for about 3 days and adherent-cultured for about 4 days were subjected to P75 flow cytometry, as described in Example 1.2, and the results of flow cytometry are shown in FIG. 3E (upper: SB431542 and DMH1, lower: SB431542 and dorsomorphin).

[2] = tested on: H9 human embryonic stem cells (hESCs); assay: Embryoid body count after suspension culture of H9 hESCs; type: cell-based; conditions: increasing concentrations of DMH1 in EB medium with 10 μM SB431542; suspension culture about 4 days; p<0.001
Experimental: Colonies obtained by culturing H9 human embryonic stem cells (hESCs) (WiCell Research Institute, Inc. Madison, Wis., U.S.A.) in a culture medium were dissociated into single cells using accutase (Life Technologies). The cells dissociated into single cells were seeded in a culture plate coated with a protein such as vitronectin (VTN) (vitronectin XF, STEMCELL Technologies), […]-521, Thermo Fisher Scientific Inc., Waltham, Mass., USA), fibronectin (Thermo Fisher Scientific Inc.), or MatrigelTM (StemCell Technologies, Inc.). An embryonic stem cell (ESC) culture medium was added to the seeded cells to perform undifferentiation culture. As the ESC culture medium, Essential 8 (E8) medium (StemCell Technologies Inc.), TeSR2 medium (StemCell Technologies Inc), StemMACS (Miltenyi Biotec, Bergisch Gladbach, Germany), etc. was used. […] The number of round-shaped embryoid bodies were counted, and the number of embryoid bodies per unit area (embryoid body/cm^2) according to DMH1 concentrations is shown in FIG. 1D (***: p<0.001).

SMILES | proportion of P75-expressing cells ([1]; 0.5 μM to 1 μM DMH1 + 10 μM SB431542) [%] | proportion of P75-expressing cells ([1]; 2.5 μM DMH1 + 10 μM SB431542) | number of embryoid bodies per unit area [2] | proportion of P75-expressing cells ([1]; 0.5 μM BMP inhibitor in EB medium containing 10 μM SB431542 and dorsomorphin) [%]
CC(C)Oc1ccc(-c2cnc3c(-c4ccnc5ccccc45)cnn3c2)cc1 [DMH1, 4-[6-[4-(1-Methylethoxy)phenyl]pyrazolo[1,5-a]pyrimidin-3-yl]-quinoline] | ≥ 69.8 | about 28.9% | significantly decreased | 
c1cc(-c2cnn3cc(-c4ccc(OCCN5CCCCC5)cc4)cnc23)ccn1 [dorsomorphin, 6-[4-[2-(1-Piperidinyl)pethoxy]phenyl]-3-(4-pyridinyl)-pyrazolo[1,5-a]pyrimidine] |  |  |  | ≥ 83.2
